≈ marks a conversion by molar mass, not a printed value. Read-outs that look alike come from different tables or passages of the source.

The subject of data set [1] is Pseudomonas aeruginosa ATCC 27853. Put plainly: MIC, broth microdilution (CLSI). The format is cell-based. The note with it: ATCC27853, P. aeruginosa ATCC 27853, read-out: MIC. For orientation: Broth dilution looks for growth in wells or tubes with falling amounts of substance.
Data set [2] deals with S. aureus strains. Put plainly: MIC, summary in text for S. aureus strains. As to conditions: Staphylococcus aureus.
Experimental: (§2) Representatives of Gram-positive and Gram-negative bacteria were selected for the antimicrobial susceptibility tests. Three Gram-positive reference strains (Staphylococcus aureus ATCC 29213, Streptococcus pneumoniae ATCC 49619, and Enterococcus faecalis ATCC 29212) and two Gram-negative reference strains (Escherichia coli ATCC 25922 and Pseudomonas aeruginosa ATCC 27853) were used. Furthermore, antibacterial activity of the isolated compounds was also assessed against recently isolated clinical strains, selected and characterized as resistant or multidrug-resistant (MDR), from the MicroMiB collection owned and maintained by the Laboratory of Clinical Microbiology and Virology of the University of Milano-Bicocca, Monza, Italy: a methicillin-resistant Staphylococcus aureus (MRSA) Monza-PFI, a fluoroquinolone-resistant S. aureus Monza-FD1, and a macrolide-resistant S. pneumoniae Monza-82.
(§3) MICs were determined following Clinical and Laboratory Standards Institute (CLSI) guidelines for the broth microdilution method [33]. […]
(§4) The plates were incubated at 37 °C for 18–24 h. After the incubation, each well was checked for the absence of bacterial pellets and the clearness of the solution; then, the MIC value (μg/mL), defined as the lowest concentration of antimicrobial agent causing visible inhibition of bacterial growth, was determined.
In data set [3] the test system is reference and MRSA S. aureus strains. Set-up: method as in PMID 23024574. As to conditions: low concentration tested; cited from earlier work.
Data set [4] has as its system Escherichia coli ATCC 25922. Put plainly: MIC, broth microdilution (CLSI). The data set is classed as cell-based. As to conditions: ATCC25922, E. coli ATCC 25922, read-out: MIC.
Data set [5] concerns methicillin-resistant Staphylococcus aureus (MRSA) Monza-PFI. Put plainly: MIC, broth microdilution (CLSI). The format is cell-based.
Data set [6] relates to macrolide-resistant S. pneumoniae Monza-82. Put plainly: MBC determination (plating of MIC wells). The note with it: for MBC: Streptococcus pneumoniae. The data set is classed as cell-based, Streptococcus pneumoniae. How it is done: (§1) Plates were incubated at 37 °C in aerobic conditions or in 5% CO2 atmosphere and checked for bacterial growth after 24 h.
In data set [7] the test system is Staphylococcus aureus ATCC 29213. As to the kind of experiment: MIC, broth microdilution (CLSI). The note with it: ATCC29213, S. aureus ATCC 29213, read-out: MIC. The format is cell-based.
Data set [8] relates to fluoroquinolone-resistant S. aureus Monza-FD1. As to the kind of experiment: MIC, broth microdilution (CLSI). The format is cell-based, Staphylococcus aureus. The note with it: Staphylococcus aureus.
Data set [9] relates to Enterococcus faecalis ATCC 29212. Put plainly: MIC, broth microdilution (CLSI). The data set is classed as cell-based. As to conditions: ATCC29212, E. faecalis ATCC 29212, read-out: MIC.
Data set [10] has as its system Streptococcus pneumoniae ATCC 49619. Put plainly: MIC, broth microdilution (CLSI). The format is cell-based. As to conditions: ATCC49619, S. pneumoniae ATCC 49619, read-out: MIC.
For data set [11], the system named is macrolide-resistant S. pneumoniae Monza-82. Put plainly: MIC, broth microdilution (CLSI). The note with it: Streptococcus pneumoniae. The format is cell-based, Streptococcus pneumoniae.
Data set [12] deals with fluoroquinolone-resistant S. aureus Monza-FD1. As to the kind of experiment: MBC determination (plating of MIC wells). The format is cell-based. As to conditions: Staphylococcus aureus. How it is done: as §1
Data set [13] relates to Staphylococcus aureus ATCC 29213. As to the kind of experiment: MBC determination (plating of MIC wells). The format is cell-based. The method, then: as §1
Data set [14] concerns Enterococcus faecalis ATCC 29212. Put plainly: MBC determination (plating of MIC wells). The format is cell-based. The method, then: as §1
The test system of data set [15] is methicillin-resistant Staphylococcus aureus (MRSA) Monza-PFI. Put plainly: MBC determination (plating of MIC wells). The data set is classed as cell-based. The method, then:
as §1

Data set [16] has as its system influenza A virus strain A/Puerto Rico/8/34 (IAV). Put plainly: Plaque reduction assay (PRA) on MDCK cells. The data set is classed as cell-based. On the technique in general: Plaques are areas of infected cells; plaque reduction assays count them against a control.
Data set [17] relates to MDCK cells. As to the kind of experiment: Cytotoxicity assay (CellTiter-Glo). As to conditions: MDCK cells, lowest dose 12.5 µg/mL, 48 h. (In general: ATP-based viability assays read luminescence as a measure of living cells.)
Experimental: (§5) African green monkey kidney cells (VERO, ATCC-American Type Culture Collection CCL-81) and Madin Darby Canine Kidney cells (MDCK, ATCC® CRL-2936™) were propagated in Dulbecco’s modified Eagle medium (DMEM; Euroclone), supplemented with 10% fetal bovine serum (FBS; Euroclone), 2 mM L-glutamine, 1 mM sodium pyruvate, 100 U/mL penicillin, and 100 μg/mL streptomycin sulfate.
(§6) The plates were incubated for 48 h at 37 °C, and then 100 μL of CellTiter-Glo reagent (Promega) was added to lyse the cells and to determine cell viability according to the producer’s instructions.
The nature of data set [18]: Cytotoxicity assay (CellTiter-Glo). The note with it: dog.
Experimental: as §5, §6
Data set [19] deals with Gram-positive bacteria. As to the kind of experiment: MIC, summary in text for Gram-positive bacteria. The note with it: majority of Gram-positive bacteria tested (except S. pneumoniae ATCC 49619).
Experimental: as §2, §3, §4
Data set [20] deals with bacteria tested. Put plainly: Bactericidal activity, whole panel (MBC). The data set is classed as cell-based. The note with it: most of the bacteria tested. The method, then: as §1

`CCC/C=C/C=C/c1c(O)cc(CC=C(C)C)c(O)c1C=O` [Dihydroauroglaucin (4), dihydroauroglaucin]: the MIC (as a rule, the least concentration at which growth counts as inhibited) in data set [1] is over 128 µg/mL; in data set [2], 128 µg/mL (≈ 426 µM); in data set [4], over 128 µg/mL; in [5] (S. aureus Monza-PFI (MRSA), read-out: MIC), 128 µg/mL (≈ 426 µM); in data set [7], 128 µg/mL (≈ 426 µM); in data set [8] (S. aureus Monza-FD1 (fluoroquinolone-resistant), read-out: MIC), 128 µg/mL (≈ 426 µM). The MIC in data set [9] is 64 µg/mL (≈ 213 µM); in data set [10], over 128 µg/mL; in data set [11] (S. pneumoniae Monza 82 (macrolide-resistant), read-out: MIC) it was 8 µg/mL (≈ 26.6 µM). Further, in data set [3], the antibacterial activity entry was “inactive”. In addition, the bactericidal activity entry in data set [6] (S. pneumoniae Monza-82 strain only) is given as “positive results”. Further, the MBC (usually the lowest tested concentration that kills the bacteria rather than only halting them) in data set [6] (S. pneumoniae Monza 82 (macrolide-resistant), read-out: MBC) was 32 µg/mL (≈ 107 µM); in data set [12] (S. aureus Monza-FD1 (fluoroquinolone-resistant), read-out: MBC), over 128 µg/mL; in [13] (ATCC29213, S. aureus ATCC 29213, read-out: MBC), over 128 µg/mL; in [14] (ATCC29212, E. faecalis ATCC 29212, read-out: MBC), over 128 µg/mL; in [15] (S. aureus Monza-PFI (MRSA), read-out: MBC), over 128 µg/mL. Also, the “inhibition of replication of IAV” value in data set [16] is reported as “completely inhibited”. The inhibition (in general, the change of the read-out against control, counted positive when it falls) at 25 µg/mL in [16] (Influenza A virus, MDCK, 48 h, read-out: inhibition of replication of IAV) is 100%.

Regarding `C/C=C/C=C/CCc1c(O)cc(CC=C(C)C)c(O)c1C=O` [Isodihydroauroglaucin (6), isodihydroauroglaucin], the MIC in data set [1] is over 128 µg/mL; in data set [4] it was over 128 µg/mL; in data set [5] (MRSA), 64 µg/mL (≈ 213 µM); in [7], 64 µg/mL (≈ 213 µM); in [8], 32 µg/mL (≈ 107 µM); in data set [9], 64 µg/mL (≈ 213 µM). For the same compound, the figures for the MIC in data set [10] and in data set [11] were over 128 µg/mL and 4 µg/mL (≈ 13.3 µM), respectively. The minimum bactericidal concentration (MBC) in data set [6] is 16 µg/mL (≈ 53.3 µM); in data set [12] it was 64 µg/mL (≈ 213 µM); in [13] (ATCC29213) it was 128 µg/mL (≈ 426 µM); in [14] (ATCC29212) it was over 128 µg/mL; in data set [15] (MRSA) it was 128 µg/mL (≈ 426 µM). In addition, the “cell toxicity (not toxic = at least 70% cell viability)” value in [17] was “toxic”. The CC50 (in general, the concentration at which the toxic effect on the cells reaches its halfway point) at 48 h in data set [18] was under 12.5 µg/mL. In [19], this compound had an MIC values range of 4 to 64 µg/mL. Moreover, in data set [20], the bactericidal activity result is on record as “bactericidal activity”.

The record behind these values is article PMC6520677, “Marine Fungi from the Sponge Grantia compressa: Biodiversity, Chemodiversity, and Biotechnological Potential” (Marine Drugs, 2019).
